Assay [1] deals with T1, Serine/threonine-protein kinase TNNI3K (Homo sapiens, UniProt Q59H18).
T1 sequence (Q59H18 whole entry): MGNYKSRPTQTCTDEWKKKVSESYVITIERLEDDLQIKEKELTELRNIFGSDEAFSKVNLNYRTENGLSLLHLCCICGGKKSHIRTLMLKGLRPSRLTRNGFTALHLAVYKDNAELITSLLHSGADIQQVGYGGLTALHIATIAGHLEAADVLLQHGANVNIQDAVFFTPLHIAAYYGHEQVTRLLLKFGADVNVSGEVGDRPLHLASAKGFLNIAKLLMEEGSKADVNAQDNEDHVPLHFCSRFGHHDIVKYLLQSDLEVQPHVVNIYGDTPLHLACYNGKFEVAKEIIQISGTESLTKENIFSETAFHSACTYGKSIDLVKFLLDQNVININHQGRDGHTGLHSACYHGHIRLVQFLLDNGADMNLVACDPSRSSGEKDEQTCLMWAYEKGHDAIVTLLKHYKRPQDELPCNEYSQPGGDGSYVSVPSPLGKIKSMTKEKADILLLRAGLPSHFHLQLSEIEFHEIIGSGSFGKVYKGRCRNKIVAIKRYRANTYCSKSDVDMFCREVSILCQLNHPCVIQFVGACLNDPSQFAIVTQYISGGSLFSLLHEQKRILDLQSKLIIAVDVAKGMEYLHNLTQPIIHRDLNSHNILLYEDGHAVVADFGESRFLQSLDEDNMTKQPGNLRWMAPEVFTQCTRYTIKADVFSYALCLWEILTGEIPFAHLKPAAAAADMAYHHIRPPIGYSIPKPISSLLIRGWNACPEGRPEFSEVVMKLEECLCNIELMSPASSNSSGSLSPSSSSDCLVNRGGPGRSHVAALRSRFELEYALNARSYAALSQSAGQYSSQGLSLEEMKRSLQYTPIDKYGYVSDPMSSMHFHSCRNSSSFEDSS
Nature of the assay: Inhibition of TNNI3K (unknown origin).

In assay [2] the target is Vascular endothelial growth factor receptor 2 (Homo sapiens, UniProt P35968). In words: Inhibition of GST-6His tagged VEGFR2 (unknown origin) using biotin-aminohexyl-EEEEYFELVAKKKK-NH2 peptide substrate incubated for 90 mins by HTRF assay.
For assay [3], the species on record is Homo sapiens. Nature of the assay: Selectivity index, ratio of IC50 for inhibition of p38alpha (unknown origin) to IC50 for inhibition of TNNI3K (unknown origin).
The target in assay [4] is Serine/threonine-protein kinase B-raf (Homo sapiens, UniProt P15056). Nature of the assay: Inhibition of B-Raf (unknown origin).
Assay [5] addresses Mitogen-activated protein kinase 14 (Homo sapiens, UniProt Q16539). Nature of the assay: Inhibition of p38alpha (unknown origin).
Assay [6] is filed under the species Homo sapiens. Nature of the assay: Selectivity index, ratio of IC50 for inhibition of VEGFR2 (unknown origin) to IC50 for inhibition of TNNI3K (unknown origin).

Sequence of Mitogen-activated protein kinase 14 (Q16539 whole entry): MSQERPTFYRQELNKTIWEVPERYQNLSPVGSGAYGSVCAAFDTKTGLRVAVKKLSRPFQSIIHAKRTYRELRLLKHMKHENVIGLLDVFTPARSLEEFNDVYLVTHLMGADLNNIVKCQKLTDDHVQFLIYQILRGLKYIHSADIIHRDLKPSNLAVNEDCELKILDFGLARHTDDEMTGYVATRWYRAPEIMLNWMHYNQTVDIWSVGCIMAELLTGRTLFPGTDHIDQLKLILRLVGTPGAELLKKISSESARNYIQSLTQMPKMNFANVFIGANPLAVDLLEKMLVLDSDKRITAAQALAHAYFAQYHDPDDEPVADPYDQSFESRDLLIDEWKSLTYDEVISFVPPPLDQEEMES
Sequence of Vascular endothelial growth factor receptor 2 (P35968 whole entry): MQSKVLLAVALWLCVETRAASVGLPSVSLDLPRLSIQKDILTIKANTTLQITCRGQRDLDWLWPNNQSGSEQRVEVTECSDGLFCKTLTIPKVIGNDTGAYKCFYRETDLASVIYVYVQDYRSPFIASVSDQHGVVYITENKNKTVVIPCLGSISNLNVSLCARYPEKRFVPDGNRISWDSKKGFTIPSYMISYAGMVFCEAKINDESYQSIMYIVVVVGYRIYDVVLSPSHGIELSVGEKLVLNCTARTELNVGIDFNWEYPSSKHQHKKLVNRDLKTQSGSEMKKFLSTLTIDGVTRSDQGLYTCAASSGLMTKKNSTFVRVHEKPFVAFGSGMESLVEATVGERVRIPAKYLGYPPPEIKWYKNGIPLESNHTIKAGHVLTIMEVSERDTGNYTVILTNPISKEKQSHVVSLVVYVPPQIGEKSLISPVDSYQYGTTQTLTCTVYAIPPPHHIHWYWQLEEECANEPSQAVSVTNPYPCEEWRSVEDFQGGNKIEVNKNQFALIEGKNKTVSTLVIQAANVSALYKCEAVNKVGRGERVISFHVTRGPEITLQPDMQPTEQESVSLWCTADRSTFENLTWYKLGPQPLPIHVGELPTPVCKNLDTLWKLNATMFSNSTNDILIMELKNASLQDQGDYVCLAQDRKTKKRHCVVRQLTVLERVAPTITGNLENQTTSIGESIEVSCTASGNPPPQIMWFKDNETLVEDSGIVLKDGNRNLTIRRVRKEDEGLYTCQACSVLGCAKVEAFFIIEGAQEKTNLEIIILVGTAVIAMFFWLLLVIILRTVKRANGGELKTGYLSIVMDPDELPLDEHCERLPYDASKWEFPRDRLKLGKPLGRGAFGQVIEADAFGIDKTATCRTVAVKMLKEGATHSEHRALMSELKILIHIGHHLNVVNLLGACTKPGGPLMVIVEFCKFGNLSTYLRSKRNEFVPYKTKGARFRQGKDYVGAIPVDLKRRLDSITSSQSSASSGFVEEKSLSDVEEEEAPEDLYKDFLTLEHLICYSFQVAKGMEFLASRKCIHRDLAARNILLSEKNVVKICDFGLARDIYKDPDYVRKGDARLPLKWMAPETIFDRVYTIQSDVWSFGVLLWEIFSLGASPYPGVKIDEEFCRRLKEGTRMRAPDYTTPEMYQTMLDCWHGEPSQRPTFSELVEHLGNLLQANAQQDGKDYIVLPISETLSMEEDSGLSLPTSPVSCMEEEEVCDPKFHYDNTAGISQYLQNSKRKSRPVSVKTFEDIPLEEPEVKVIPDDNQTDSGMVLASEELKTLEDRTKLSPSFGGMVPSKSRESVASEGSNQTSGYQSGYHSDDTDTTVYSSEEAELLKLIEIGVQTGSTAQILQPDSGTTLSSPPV
Sequence of Serine/threonine-protein kinase B-raf (P15056 whole entry): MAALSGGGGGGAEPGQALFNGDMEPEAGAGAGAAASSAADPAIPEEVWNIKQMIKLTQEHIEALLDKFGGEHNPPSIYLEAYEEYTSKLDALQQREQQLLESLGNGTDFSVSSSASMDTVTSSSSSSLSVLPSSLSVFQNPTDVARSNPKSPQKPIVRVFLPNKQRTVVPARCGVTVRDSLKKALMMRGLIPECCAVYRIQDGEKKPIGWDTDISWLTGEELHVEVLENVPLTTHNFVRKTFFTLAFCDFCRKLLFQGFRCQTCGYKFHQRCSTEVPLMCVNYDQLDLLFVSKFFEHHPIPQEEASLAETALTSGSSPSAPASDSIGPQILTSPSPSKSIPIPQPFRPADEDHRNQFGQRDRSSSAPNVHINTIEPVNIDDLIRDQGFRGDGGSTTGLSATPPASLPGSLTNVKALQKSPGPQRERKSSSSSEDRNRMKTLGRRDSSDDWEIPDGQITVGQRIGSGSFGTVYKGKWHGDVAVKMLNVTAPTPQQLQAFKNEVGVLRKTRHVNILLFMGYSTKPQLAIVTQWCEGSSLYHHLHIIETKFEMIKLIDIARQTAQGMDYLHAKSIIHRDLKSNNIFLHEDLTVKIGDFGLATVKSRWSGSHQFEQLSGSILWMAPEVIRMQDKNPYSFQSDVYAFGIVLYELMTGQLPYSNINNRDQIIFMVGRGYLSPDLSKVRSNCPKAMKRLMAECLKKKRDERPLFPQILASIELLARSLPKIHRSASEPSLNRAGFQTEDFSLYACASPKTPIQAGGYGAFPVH

For the compound `CCCNc1cc(Oc2ccc(NC(=O)Nc3cccc(C(F)(F)F)c3)cc2)ncn1`, the IC50 was found to be 32 nM in assay [1], 19 nM in assay [2], 630 nM in assay [4] and 400 nM in assay [5]. In the assay listed under Homo sapiens [3], the Ratio IC50 came out at 13.

For `Cc1cc(Oc2ccc(NC(=O)Nc3cccc(C(F)(F)F)c3)cc2)c2ccccc2n1`, the IC50 in assay [1] is above 50000 nM; in assay [2] it was above 10000 nM; in assay [4], 1260 nM; in assay [5], 1000 nM. The Ratio IC50 in the assay listed under Homo sapiens [3] is below 0.02.

In the case of `CC(C)CNc1cc(Oc2ccc(NC(=O)Nc3cccc(C(F)(F)F)c3)cc2)ncn1`, the IC50 came out at 50 nM in assay [1], 320 nM in assay [2], 1260 nM in assay [4] and 250 nM in assay [5]. The Ratio IC50 in the assay listed under Homo sapiens [6] was 6.4; in the assay filed under Homo sapiens [3], 5.

In the case of `CNc1cc(Oc2ccc(NC(=O)Nc3cccc(C(F)(F)F)c3)c(F)c2F)ncn1`, the IC50 is 20 nM in assay [1], 2.5 nM in assay [2], 16 nM in assay [4] and 160 nM in assay [5]. For the same compound, the figures for the Ratio IC50 in the assay filed under Homo sapiens [6] and in the assay filed under Homo sapiens [3] were 0.13 and 8, respectively.

For `C[C@@H](O)CNc1cc(Oc2ccc(NC(=O)Nc3cccc(C(F)(F)F)c3)cc2)ncn1`, the IC50 was 63 nM in assay [1], 200 nM in assay [2], 1000 nM in assay [4] and 500 nM in assay [5]. Besides, the Ratio IC50 in the assay listed under Homo sapiens [6] turned out to be 3.2; in the assay filed under Homo sapiens [3], 8.

Consider `CNc1cc(Oc2ccc(NC(=O)Nc3cccc(C(C)(F)F)c3)cc2)ncn1`, for which the IC50 in assay [1] is 40 nM; in assay [2], 40 nM; in assay [4], 500 nM; in assay [5], 1000 nM. For the same compound, the Ratio IC50 in the assay filed under Homo sapiens [6] amounted to 1; in the assay filed under Homo sapiens [3] it was 25.

With `O=C(Nc1ccc(Oc2ccncc2)cc1)Nc1cccc(C(F)(F)F)c1`, the IC50 in assay [1] was 50 nM; in assay [2] it was 20 nM; in assay [4], 630 nM; in assay [5], 200 nM. For the same compound, the Ratio IC50 in the assay filed under Homo sapiens [6] turned out to be 0.4; in the assay listed under Homo sapiens [3] it was 4.

`COc1cc2ncnc(Oc3ccc(NC(=O)Nc4cccc(C(F)(F)F)c4)cc3)c2cc1OC`: the IC50 was 23 nM in assay [1], 2 nM in assay [2], 63 nM in assay [4] and 800 nM in assay [5]. Moreover, the Ratio IC50 in the assay listed under Homo sapiens [6] turned out to be 0.08; in the assay filed under Homo sapiens [3], 32.

Regarding `CNC(=O)c1cc(Oc2ccc(NC(=O)Nc3cccc(C(F)(F)F)c3)cc2)ccn1`, the IC50 in assay [1] came to 79 nM; in assay [2] it was 4 nM; in assay [5], 320 nM. Also, the Ratio IC50 worked out at 0.05 in the assay filed under Homo sapiens [6] and 4 in the assay filed under Homo sapiens [3].

In the case of `CNc1cc(Oc2ccc(NC(=O)Nc3cccc(C)c3)cc2)ncn1`, the IC50 was 1260 nM in assay [1], 800 nM in assay [2], above 2000 nM in assay [4] and above 25000 nM in assay [5]. The Ratio IC50 in the assay filed under Homo sapiens [6] was 0.63; in the assay filed under Homo sapiens [3], above 20.

For `COc1ccc2ncnc(Oc3ccc(NC(=O)Nc4cccc(C(F)(F)F)c4)cc3)c2c1`, the half-inhibitory concentration (IC50) came to 100 nM in assay [1], 10 nM in assay [2], 400 nM in assay [4] and 1600 nM in assay [5]. Also, the Ratio IC50 is 0.1 in the assay filed under Homo sapiens [6] and 16 in the assay listed under Homo sapiens [3].

For `Cc1cc(Oc2ccc(NC(=O)Nc3cccc(C(F)(F)F)c3)cc2)ncn1`, the IC50 in assay [1] was 160 nM; in assay [2] it was 63 nM; in assay [4] it was 1260 nM; in assay [5], 1000 nM. For the same compound, the results for the Ratio IC50 in the assay filed under Homo sapiens [6] and in the assay filed under Homo sapiens [3] were 0.4 and 6.3, respectively.

Consider `CN(C)c1cc(Oc2ccc(NC(=O)Nc3cccc(C(F)(F)F)c3)cc2)ncn1`, for which the half-inhibitory concentration (IC50) in assay [1] came to 2500 nM; in assay [2] it was 2500 nM; in assay [4] it was 1000 nM; in assay [5], 2000 nM. For the same compound, the Ratio IC50 is 1 in the assay listed under Homo sapiens [6] and 0.8 in the assay listed under Homo sapiens [3].

Turning to `O=C(Nc1ccc(Oc2ccnc3[nH]ccc23)cc1)Nc1cccc(C(F)(F)F)c1`, the IC50 in assay [1] stood at 32 nM; in assay [2], 3.2 nM; in assay [4], 320 nM; in assay [5], 32 nM. The values for the Ratio IC50 in the assay filed under Homo sapiens [6] and in the assay filed under Homo sapiens [3] were 0.1 and 1, respectively.

`CNc1cc(Oc2ccc(NC(=O)Nc3cccc(C(F)(F)F)c3)cc2C)ncn1`: the IC50 in assay [1] is at most 10 nM; in assay [2], 63 nM; in assay [4], 160 nM; in assay [5], 630 nM. The Ratio IC50 in the assay listed under Homo sapiens [6] was above 6.3; in the assay listed under Homo sapiens [3] it was above 63.

Take `CNc1cc(Oc2ccc(NC(=O)Nc3cccc(CF)c3)cc2)ncn1`: the IC50 in assay [1] was 400 nM; in assay [2], 400 nM; in assay [4], above 2000 nM; in assay [5] it was 25000 nM. The Ratio IC50 in the assay filed under Homo sapiens [6] worked out at 1; in the assay filed under Homo sapiens [3], 63.

In the case of `O=C(Nc1ccc(Oc2ncnc3ccccc23)cc1)Nc1cccc(C(F)(F)F)c1`, the IC50 in assay [1] is 800 nM; in assay [2], 320 nM; in assay [4], 1260 nM; in assay [5], 1260 nM. For the same compound, the Ratio IC50 in the assay filed under Homo sapiens [6] came out at 0.4; in the assay listed under Homo sapiens [3], 1.6.

As for `CNc1cc(Oc2ccc(NC(=O)Nc3ccccc3)cc2)ncn1`, the concentration for half-maximal inhibition (IC50) is 6300 nM in assay [1], 6300 nM in assay [2], above 2000 nM in assay [4] and above 25000 nM in assay [5]. In addition, the results for the Ratio IC50 in the assay listed under Homo sapiens [6] and in the assay filed under Homo sapiens [3] were 1 and above 4, respectively.

Consider `O=C(O)Cc1cccc(Nc2cc(Oc3ccc(NC(=O)Nc4cccc(C(F)(F)F)c4)cc3)ncn2)c1`, for which the IC50 is 10 nM in assay [1], 0.4 nM in assay [2], 630 nM in assay [4] and 400 nM in assay [5]. Further, the values for the Ratio IC50 in the assay listed under Homo sapiens [6] and in the assay listed under Homo sapiens [3] were 0.04 and 40, respectively.

As for `C[C@H](O)CNc1cc(Oc2ccc(NC(=O)Nc3cccc(C(F)(F)F)c3)cc2)ncn1`, the concentration for half-maximal inhibition (IC50) in assay [1] is 32 nM; in assay [2] it was 320 nM; in assay [4] it was 800 nM; in assay [5] it was 320 nM. Moreover, the Ratio IC50 in the assay filed under Homo sapiens [6] and in the assay listed under Homo sapiens [3] was 10 throughout.

Regarding `O=C(Nc1ccc(Oc2cc(Nc3cccc(CN4CCCC4)c3)ncn2)cc1)Nc1cccc(C(F)(F)F)c1`, the IC50 is 10 nM in assay [1], 3.2 nM in assay [2], 200 nM in assay [4] and 50 nM in assay [5]. Moreover, the Ratio IC50 in the assay listed under Homo sapiens [6] worked out at 0.32; in the assay listed under Homo sapiens [3] it was 5.

In the case of `CNc1nccc(Oc2ccc(NC(=O)Nc3cccc(C(F)(F)F)c3)cc2)n1`, the IC50 amounted to 50 nM in assay [1], 32 nM in assay [2], 63 nM in assay [4] and 50 nM in assay [5]. Further, the Ratio IC50 in the assay listed under Homo sapiens [6] worked out at 0.64; in the assay filed under Homo sapiens [3] it was 1.

In the case of `CNc1cc(Oc2c(C)cc(NC(=O)Nc3cccc(C(F)(F)F)c3)c3ccccc23)ncn1`, the IC50 is 32 nM in assay [1], 160 nM in assay [2], above 2000 nM in assay [4] and 130 nM in assay [5]. For the same compound, the values for the Ratio IC50 in the assay listed under Homo sapiens [6] and in the assay filed under Homo sapiens [3] were 5 and 4, respectively.

Take `CNc1cc(Oc2cc(C)c(NC(=O)Nc3cccc(C(F)(F)F)c3)cc2C)ncn1`: the IC50 is 32 nM in assay [1], 2000 nM in assay [2], above 2000 nM in assay [4] and 5000 nM in assay [5]. Also, the Ratio IC50 in the assay filed under Homo sapiens [6] is 63; in the assay filed under Homo sapiens [3] it was 160.

As for `COc1cc(Oc2ccc(NC(=O)Nc3cccc(C(F)(F)F)c3)cc2)ncn1`, the IC50 was 4000 nM in assay [1], 400 nM in assay [2], above 2000 nM in assay [4] and 1260 nM in assay [5]. Moreover, the Ratio IC50 was 0.1 in the assay listed under Homo sapiens [6] and 0.3 in the assay listed under Homo sapiens [3].

Consider `CNc1cc(Oc2ccc(NC(=O)Nc3cccc(C(F)F)c3)cc2)ncn1`, for which the IC50 in assay [1] is 100 nM; in assay [2], 130 nM; in assay [4], above 2000 nM; in assay [5], 6300 nM. Also, the Ratio IC50 in the assay listed under Homo sapiens [6] was determined as 1.3; in the assay filed under Homo sapiens [3], 62.

In the case of `CNc1cc(Oc2c(C)cc(NC(=O)Nc3cccc(C(F)(F)F)c3)cc2Cl)ncn1`, the IC50 in assay [1] is 79 nM; in assay [2], 400 nM; in assay [4], above 2000 nM; in assay [5] it was 2000 nM. The Ratio IC50 in the assay listed under Homo sapiens [6] was found to be 5.1; in the assay filed under Homo sapiens [3], 25.

Turning to `CNc1cc(Oc2ccc(NC(=O)Nc3cccc(C(F)(F)F)c3)cc2F)ncn1`, the IC50 in assay [2] was 16 nM; in assay [4], 1600 nM; in assay [5] it was 1000 nM. In addition, the Ratio IC50 in the assay listed under Homo sapiens [6] came out at 0.64; in the assay filed under Homo sapiens [3], 40.

For orientation: IC50 means the concentration that gives 50% inhibition. A high value points to lower potency.
